Reference: ChEMBL document CHEMBL1201862, “PubChem BioAssay data set” (2004)
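Grown in 96-well plates, cells were treated for 48 hours with each compound at five concentrations. Insufficient inhibition: endpoint recorded as highest concentration tested. GI50 is the concentration that inhibits growth by half.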 Calls of active or inactive are those of the source. Cut-off read from the data, not from the text of the source: active = GI50 up to about 1.1 µM and inactive = higher.

How the values were obtained:
Assay in all cases: DTP human tumour cell line panel, 48 h
[1] = test system: MCF7
[2] = test system: HT-29
[3] = test system: HL-60
[4] = test system: OVCAR-8
[5] = test system: SF-539
[6] = test system: MDA-N
[7] = test system: HOP-62
[8] = test system: SK-OV-3
[9] = test system: TK-10
[10] = test system: NCI-H226
[11] = test system: RPMI-8226
[12] = test system: IGROV-1
[13] = test system: SN12C
[14] = test system: LOX IMVI
[15] = test system: SK-MEL-28
[16] = test system: RXF 393
[17] = test system: OVCAR-3
[18] = test system: UACC-257

Measured: GI50

C=C1C(=O)O[C@@H]2/C=C(C)/C=C\[C@@H]3O[C@@]3(C)C[C@@H](O)C12 (some centres undefined)
inactive: [1] 4.4 µM | [2] 10 µM | [3] 2.54 µM | [4] 17.4 µM | [5] 7.73 µM | [6] 13.2 µM | [7] 36.1 µM | [8] 54 µM | [9] 3.81 µM | [10] 9.1 µM | [11] 3.74 µM | [12] 13 µM | [13] 13.4 µM | [14] 7.1 µM | [15] 19.9 µM | [16] 18.7 µM | [17] 14.1 µM | [18] 11.8 µM

C#CCCCC(=C)C[C@@H]1OC(=O)[C@H](C)[C@@H]1O
inactive: [1] > 100 µM | [3] > 100 µM | [6] > 100 µM | [7] > 100 µM | [8] > 100 µM | [11] > 100 µM | [13] > 100 µM | [14] > 100 µM | [15] > 100 µM | [16] > 100 µM | [17] > 100 µM

C#CCOCn1cc(C)c(=O)[nH]c1=O
inactive: [1] > 100 µM | [2] > 100 µM | [3] > 100 µM | [4] > 100 µM | [5] > 100 µM | [6] > 100 µM | [7] > 100 µM | [8] > 100 µM | [9] > 100 µM | [10] > 100 µM | [11] > 100 µM | [12] > 100 µM | [13] > 100 µM | [14] > 100 µM | [15] > 100 µM | [18] > 100 µM

CN(OC(=O)CC(=O)c1ccccc1)C(=O)Cc1ccccc1
inactive: [2] > 100 µM | [3] > 100 µM | [4] > 100 µM | [5] > 100 µM | [7] > 100 µM | [8] > 100 µM | [9] > 100 µM | [10] > 100 µM | [11] 46.7 µM | [12] > 100 µM | [13] > 100 µM | [14] > 100 µM | [17] > 100 µM | [18] > 100 µM

C=C(C)CCOC(c1ccccc1)(c1ccccc1)c1ccccc1
inactive: [2] 22.3 µM | [3] 31.5 µM | [4] 73.5 µM | [5] 91 µM | [7] 70.5 µM | [8] > 100 µM | [9] 83.4 µM | [10] 26.3 µM | [11] 33.9 µM | [12] > 100 µM | [13] 69 µM | [14] 25.2 µM | [15] 42.7 µM | [16] 18.5 µM | [17] 64.4 µM | [18] 25.4 µM

Oc1ccc(-c2csc(N/N=C3\NC/C(=C/c4ccc5c(c4)OCO5)S3)n2)cc1O
inactive: [1] 6.43 µM | [2] 38.5 µM | [3] > 10 µM | [4] 29.2 µM | [5] 3.18 µM | [6] 3.4 µM | [7] 22.1 µM | [8] > 100 µM | [9] 21.7 µM | [10] 43.5 µM | [12] 20.6 µM | [13] 33.5 µM | [14] 11.6 µM | [15] 11.9 µM | [18] 14.6 µM

CN(C)c1ccc(/C=C2\Cc3ccccc3C2=O)cc1Br
inactive: [2] 34.8 µM | [4] 63.5 µM | [7] > 100 µM | [8] > 100 µM | [9] > 100 µM | [11] 24.1 µM | [12] > 100 µM | [13] 51.5 µM | [15] 39 µM | [17] > 100 µM | [18] 44.8 µM

COc1ccc(NC(=O)NNS(=O)(=O)c2ccc(C)cc2)cc1
inactive: [1] > 100 µM | [2] > 100 µM | [3] > 100 µM | [4] > 100 µM | [5] > 100 µM | [6] 32.7 µM | [7] > 100 µM | [8] > 100 µM | [9] > 100 µM | [10] > 100 µM | [11] > 100 µM | [12] > 100 µM | [13] > 100 µM | [15] > 100 µM | [16] > 100 µM | [18] > 100 µM

Sc1nn2c(Cc3ccccc3)nnc2s1
inactive: [1] > 100 µM | [2] > 100 µM | [3] > 100 µM | [4] > 100 µM | [5] > 100 µM | [7] > 100 µM | [8] > 100 µM | [9] > 100 µM | [10] 89.9 µM | [11] > 100 µM | [12] > 100 µM | [13] > 100 µM | [14] > 100 µM | [15] > 100 µM | [16] > 100 µM | [17] > 100 µM | [18] > 100 µM

O=c1c(O)c(-c2ccc(O)cc2O)oc2cc(O)cc(O)c12 [MORIN]
inactive: [1] > 100 µM | [2] > 100 µM | [3] > 100 µM | [4] > 100 µM | [5] > 100 µM | [6] > 100 µM | [7] > 100 µM | [9] 33.4 µM | [10] > 100 µM | [12] > 100 µM | [13] > 100 µM | [14] > 100 µM | [15] > 100 µM | [17] > 100 µM | [18] > 100 µM
